Reference: US12624044B2, “SMARCA degraders and uses thereof” (Kymera Therapeutics, Inc., priority 2019, dated 2026)

Molecular target: SMARCA2 (Homo sapiens, UniProt P51531)
Test: MSD SMARCA2 degradation in NCI-H1299 cell line (24 h)
Format: cell-based
Parameters: HC: NCI-H1299 cells treated with DMSO; host or cells: NCI-H1299
Settings: for Dmax: NCI-H1299, NCI-H1299 cells; for DC50: NCI-H1299 cells, read-out: SMARCA2 MSD H1299 degradation 24 h: External Abs-DC50
Procedure, shortened: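 NCI-H1299 cells treated 24 h with a 3-fold, 9-point compound dilution series, then lysed in RIPA with protease inhibitor. SMARCA2 in lysate-coated MSD plates detected with rabbit anti-SMARCA2 (0.3 ug/ml) and SULFO-TAG secondary. Relative SMARCA2 level normalized between DMSO-treated H1299 cells and SMARCA2-negative A2780 cells; Dmax % binned A–D.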

Sequence of SMARCA2 (P51531 whole entry): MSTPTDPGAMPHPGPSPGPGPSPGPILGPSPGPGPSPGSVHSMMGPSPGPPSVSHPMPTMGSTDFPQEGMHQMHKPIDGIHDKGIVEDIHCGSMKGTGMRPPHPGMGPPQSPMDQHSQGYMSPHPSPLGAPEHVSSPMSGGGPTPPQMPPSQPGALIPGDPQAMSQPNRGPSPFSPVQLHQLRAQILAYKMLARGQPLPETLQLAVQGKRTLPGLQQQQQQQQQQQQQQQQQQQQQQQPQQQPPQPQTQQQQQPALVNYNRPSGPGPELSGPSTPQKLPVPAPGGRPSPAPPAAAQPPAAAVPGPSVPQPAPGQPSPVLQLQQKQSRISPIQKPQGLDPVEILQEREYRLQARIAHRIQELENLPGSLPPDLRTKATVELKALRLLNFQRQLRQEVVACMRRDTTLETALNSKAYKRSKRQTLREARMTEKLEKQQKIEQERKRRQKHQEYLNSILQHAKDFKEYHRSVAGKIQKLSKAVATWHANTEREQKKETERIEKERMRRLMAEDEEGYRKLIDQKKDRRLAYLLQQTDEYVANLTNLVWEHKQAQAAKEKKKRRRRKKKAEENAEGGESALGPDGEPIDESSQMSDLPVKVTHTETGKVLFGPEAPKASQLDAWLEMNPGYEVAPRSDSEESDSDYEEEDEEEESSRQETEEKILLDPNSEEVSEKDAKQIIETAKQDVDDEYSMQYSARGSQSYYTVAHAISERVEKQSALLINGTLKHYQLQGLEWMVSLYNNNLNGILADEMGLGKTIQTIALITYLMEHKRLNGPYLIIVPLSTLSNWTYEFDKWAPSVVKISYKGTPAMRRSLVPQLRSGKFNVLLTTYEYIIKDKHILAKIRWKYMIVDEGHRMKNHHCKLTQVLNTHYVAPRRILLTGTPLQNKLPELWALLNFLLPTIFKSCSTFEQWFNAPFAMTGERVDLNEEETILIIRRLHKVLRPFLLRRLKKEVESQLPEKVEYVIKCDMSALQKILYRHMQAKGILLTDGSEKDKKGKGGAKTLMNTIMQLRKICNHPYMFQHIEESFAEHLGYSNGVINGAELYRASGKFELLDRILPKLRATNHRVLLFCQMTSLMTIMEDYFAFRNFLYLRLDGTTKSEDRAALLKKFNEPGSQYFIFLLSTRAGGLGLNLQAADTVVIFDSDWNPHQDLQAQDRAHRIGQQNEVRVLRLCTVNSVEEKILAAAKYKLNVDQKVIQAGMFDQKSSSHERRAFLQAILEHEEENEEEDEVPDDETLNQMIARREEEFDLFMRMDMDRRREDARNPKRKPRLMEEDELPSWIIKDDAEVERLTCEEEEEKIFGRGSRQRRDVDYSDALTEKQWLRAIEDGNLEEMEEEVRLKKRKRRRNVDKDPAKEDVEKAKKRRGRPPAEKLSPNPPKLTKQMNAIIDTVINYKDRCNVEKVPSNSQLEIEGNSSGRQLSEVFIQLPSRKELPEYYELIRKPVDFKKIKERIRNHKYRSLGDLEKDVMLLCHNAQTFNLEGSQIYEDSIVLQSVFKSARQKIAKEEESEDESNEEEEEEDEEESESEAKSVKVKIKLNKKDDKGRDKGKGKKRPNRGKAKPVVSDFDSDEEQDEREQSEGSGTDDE

SMILES | Dmax [%] | DC50 [nM]
CN(CCCc1ccc2c(c1)n(C)c(=O)n2C1CCC(=O)NC1=O)Cc1ccc(N2CCN(c3cc(-c4ccccc4O)nnc3N)CC2)cc1 (stereo not drawn) [I-159, 3-(5-(3-((4-(4-(3-amino-6-(2-hydroxyphenyl)pyridazin-4-yl)piperazin-1-yl)benzyl)(methyl)amino)propyl)-3-methyl-2-oxo-2,3-dihydro-1H-benzo[d]imidazol-1-yl)piperidine-2,6-dione] | < 50 | > 1000
CN1C(=O)CCC(n2c(=O)n(C)c3cc(CCCOCCCCN4CCN(Cc5ccc(-c6cc(-c7ccccc7O)nnc6N)cc5)CC4)ccc32)C1=O (stereo not drawn) [I-160] | < 50 | > 1000
CN(CCCc1cnc(N2C3CCC2CN(c2cc(-c4ccccc4O)nnc2N)C3)nc1)CCCc1ccc2c(c1)n(C)c(=O)n2C1CCC(=O)NC1=O (stereo not drawn) [I-161] | > 90 | < 100
Cn1c(=O)n(C2CCC(=O)NC2=O)c2ccc(CN3CCN(Cc4cnc(N5C6CCC5CN(c5cc(-c7ccccc7O)nnc5N)C6)nc4)CC3)cc21 (stereo not drawn) [I-163] | < 50 | > 1000
CN(Cc1ccc2c(c1)n(C)c(=O)n2C1CCC(=O)NC1=O)C1CCN(Cc2cnc(N3C4CCC3CN(c3cc(-c5ccccc5O)nnc3N)C4)nc2)CC1 (stereo not drawn) [I-164, 3-(5-(((1-((2-(3-(3-amino-6-(2-hydroxyphenyl)pyridazin-4-yl)-3,8-diazabicyclo[3.2.1]octan-8-yl)pyrimidin-5-yl)methyl)piperidin-4-yl)(methyl)amino)methyl)-3-methyl-2-oxo-2,3-dihydro-1H-benzo[d]imidazol-1-yl)piperidine-2,6-dione hydrogen chloride] | > 90 | < 100
Cn1c(=O)n(C2CCC(=O)NC2=O)c2ccc(CCN3CCN(Cc4cnc(N5C6CCC5CN(c5cc(-c7ccccc7O)nnc5N)C6)nc4)CC3)cc21 (stereo not drawn) [I-165] | > 90 | < 100
Cn1c(=O)n(C2CCC(=O)NC2=O)c2ccc(CN3CC4(CCN(Cc5cnc(N6C7CCC6CN(c6cc(-c8ccccc8O)nnc6N)C7)nc5)CC4)C3)cc21 (stereo not drawn) [I-166] | > 90 | < 100
Cn1c(=O)n(C2CCC(=O)NC2=O)c2ccc(CCCN3CCC(c4cnc(N5C6CCC5CN(c5cc(-c7ccccc7O)nnc5N)C6)nc4)CC3)cc21 (stereo not drawn) [I-167, 3-[5-[3-[4-[2-[3-[3-amino-6-(2-hydroxyphenyl)pyridazin-4-yl]-3,8-diazabicyclo[3.2.1]octan-8-yl]pyrimidin-5-yl]-1-piperidyl]propyl]-3-methyl-2-oxo-benzimidazol-1-yl]piperidine-2,6-dione] | > 90 | < 100
Cn1c(=O)n(C2CCC(=O)NC2=O)c2cccc(CCCCCCCN3CCCC(n4cc(-c5cc(-c6ccccc6O)nnc5N)cn4)C3)c21 (stereo not drawn) [I-171] | 50 to 70 | > 1000
Cn1c(=O)n(C2CCC(=O)NC2=O)c2cccc(CN3CCC(n4cc(-c5cc(-c6ccccc6O)nnc5N)cn4)CC3)c21 (stereo not drawn) [I-173] | < 50 | > 1000
Cn1c(=O)n(C2CCC(=O)NC2=O)c2ccc(CCCCCN3CCCC(n4cc(-c5cc(-c6ccccc6O)nnc5N)cn4)C3)cc21 (stereo not drawn) [I-179] | 50 to 70 | 100 to 500
Cn1c(=O)n(C2CCC(=O)NC2=O)c2ccc(CCCCCCCN3CCCC(n4cc(-c5cc(-c6ccccc6O)nnc5N)cn4)C3)cc21 (stereo not drawn) [I-180] | < 50 | > 1000
Cn1c(=O)n(C2CCC(=O)NC2=O)c2ccc(CN3CCC(n4cc(-c5cc(-c6ccccc6O)nnc5N)cn4)CC3)cc21 (stereo not drawn) [I-181] | < 50 | > 1000
Cn1c(=O)n(C2CCC(=O)NC2=O)c2ccc(CCCN3CCC(n4cc(-c5cc(-c6ccccc6O)nnc5N)cn4)CC3)cc21 (stereo not drawn) [I-182] | 50 to 70 | 100 to 500
Cn1c(=O)n(C2CCC(=O)NC2=O)c2ccc(CCCCCCCN3CCC(n4cc(-c5cc(-c6ccccc6O)nnc5N)cn4)CC3)cc21 (stereo not drawn) [I-184] | < 50 | > 1000
Cn1c(=O)n(C2CCC(=O)NC2=O)c2cccc(CCCCCCCCN3CCN(c4cc(-c5ccccc5O)nnc4N)CC3)c21 (stereo not drawn) [I-185] | < 50 | > 1000
Cn1c(=O)n(C2CCC(=O)NC2=O)c2ccc(CCc3cnc(N4C5CCC4CN(c4cc(-c6ccccc6O)nnc4N)C5)nc3)cc21 (stereo not drawn) [I-186, 3-[5-[2-[2-[3-[3-amino-6-(2-hydroxyphenyl)pyridazin-4-yl]-3,8-diazabicyclo[3.2.1]octan-8-yl]pyrimidin-5-yl]ethyl]-3-methyl-2-oxo-benzimidazol-1-yl]piperidine-2,6-dione] | 50 to 70 | 100 to 500
CN1C(=O)CCC(n2c(=O)n(C)c3cc(CCCCCCCc4cnc(N5C6CCC5CN(c5cc(-c7ccccc7O)nnc5N)C6)nc4)ccc32)C1=O (stereo not drawn) [I-187] | < 50 | > 1000
Cn1c(=O)n(C2CCC(=O)NC2=O)c2cccc(CCCN3CCC[C@@H](Cn4cc(-c5cc(-c6ccccc6O)nnc5N)cn4)C3)c21 (stereo partly drawn) [I-188] | 70 to 90 | 100 to 500

Next, values leading:

Dmax [%] | DC50 [nM] | SMILES
70 to 90 | 100 to 500 | Cn1c(=O)n(C2CCC(=O)NC2=O)c2ccc(CN3CC[C@@H](OCCCN4CCN(Cc5ccc(-c6cc(-c7ccccc7O)nnc6N)cc5)CC4)C3)cc21 (stereo partly drawn) [I-157]
70 to 90 | 100 to 500 | Cn1c(=O)n(C2CCC(=O)NC2=O)c2ccc(CN3CCC(OCCCN4CCN(Cc5ccc(-c6cc(-c7ccccc7O)nnc6N)cc5)CC4)CC3)cc21 (stereo not drawn) [I-158]
50 to 70 | 100 to 500 | Cn1c(=O)n(C2CCC(=O)NC2=O)c2cccc(CN3CCCC(n4cc(-c5cc(-c6ccccc6O)nnc5N)cn4)C3)c21 (stereo not drawn) [I-168]
> 90 | < 100 | Cn1c(=O)n(C2CCC(=O)NC2=O)c2cccc(CCCN3CCCC(n4cc(-c5cc(-c6ccccc6O)nnc5N)cn4)C3)c21 (stereo not drawn) [I-169, 3-(4-(3-(3-(4-(3-amino-6-(2-hydroxyphenyl)pyridazin-4-yl)-1H-pyrazol-1-yl)piperidin-1-yl)propyl)-3-methyl-2-oxo-2,3-dihydro-1H-benzo[d]imidazol-1-yl)piperidine-2,6-dione]
70 to 90 | < 100 | Cn1c(=O)n(C2CCC(=O)NC2=O)c2cccc(CCCCCN3CCCC(n4cc(-c5cc(-c6ccccc6O)nnc5N)cn4)C3)c21 (stereo not drawn) [I-170]
> 90 | < 100 | Cn1c(=O)n(C2CCC(=O)NC2=O)c2cccc(CCCN3CCC(n4cc(-c5cc(-c6ccccc6O)nnc5N)cn4)CC3)c21 (stereo not drawn) [I-174, 3-[4-[3-[4-[4-[3-amino-6-(2-hydroxyphenyl)pyridazin-4-yl]pyrazol-1-yl]-1-piperidyl]propyl]-3-methyl-2-oxo-benzimidazol-1-yl]piperidine-2,6-dione]
> 90 | < 100 | Cn1c(=O)n(C2CCC(=O)NC2=O)c2cccc(CCCCCN3CCC(n4cc(-c5cc(-c6ccccc6O)nnc5N)cn4)CC3)c21 (stereo not drawn) [I-175]
70 to 90 | < 100 | Cn1c(=O)n(C2CCC(=O)NC2=O)c2cccc(CCCCCCCN3CCC(n4cc(-c5cc(-c6ccccc6O)nnc5N)cn4)CC3)c21 (stereo not drawn) [I-176]
70 to 90 | < 100 | Cn1c(=O)n(C2CCC(=O)NC2=O)c2ccc(CN3CCCC(n4cc(-c5cc(-c6ccccc6O)nnc5N)cn4)C3)cc21 (stereo not drawn) [I-177]
70 to 90 | < 100 | Cn1c(=O)n(C2CCC(=O)NC2=O)c2ccc(CCCN3CCCC(n4cc(-c5cc(-c6ccccc6O)nnc5N)cn4)C3)cc21 (stereo not drawn) [I-178]
70 to 90 | < 100 | Cn1c(=O)n(C2CCC(=O)NC2=O)c2ccc(CCCCCN3CCC(n4cc(-c5cc(-c6ccccc6O)nnc5N)cn4)CC3)cc21 (stereo not drawn) [I-183]
